Structure (SMILES)	logP
CCCc1cccc(C)c1	4.67
CCCc1ccc(C)cc1	4.6
CCCc1ccccc1C	4.5
Cc1cccc(C(C)C)c1	4.5
CCC(C)c1ccccc1 (stereo unspecified)	4.57
Cc1ccccc1C(C)C	4.38
CCc1cccc(CC)c1	4.57
CCc1cccc(C)c1	3.98
CCCCCCCCCc1ccccc1	7.11
CCc1ccc(CC)cc1	4.58

Further lines, results first:

logP	Structure (SMILES)
4.43	CCc1cc(C)ccc1C
4.55	CCc1cc(C)cc(C)c1
4.34	CCc1cccc(C)c1C
4.28	CCc1c(C)cccc1C
4.5	CCc1ccc(C)c(C)c1
4.47	CCc1ccc(C)cc1C
